This assay has as its system neutral/alkaline RatBrain Ceramidase. Put plainly: Inhibitory activity on neutral/alkaline RatBrain Ceramidase (Reference Example 1, NBD-C12-Ceramide, HPLC). Format: biochemical, rat. The settings on record: concentration of 5 μM; NBD-C12-Ceramide 0.02 mM.

Protocol: As neutral/alkaline ceramidase, two kinds of ceramidase derived from Pseudomonas aeruginosa strain AN17 and ceramidase derived from a rat brain were used.
On the other hand, a crude enzyme solution of rat brain-derived ceramidase was prepared in the following manner. First, two pieces (3.5 g) of rat brain tissues were homogenized in 30 mL of 0.25 M sucrose solution with a Potter-Elvehjem homogenizer. The resulting homogenate was centrifuged at 700×g for 10 minutes, then the supernatant was centrifuged at 25,000×g for 10 minutes, and the resulting supernatant was further centrifuged at 100,000×g for 60 minutes to give precipitates which were then suspended in 3 mL of 25 mM Tris-HCl buffer (pH 8.0). Nine milliliters of 25 mM Tris-HCl buffer (pH 8.0) comprising 0.5% Triton X-100 was added to the resulting suspension which was then subjected to extraction by leaving the suspension on ice for 2 hours. […]
The inhibitory activity on the neutral/alkaline RatBrain Ceramidase was determined in the following manner. […] The reaction was terminated by adding 75 microliters of methanol, and 50 microliters of aliquot of the reaction solution was analyzed by HPLC.
HPLC analysis was carried out in the following manner. […] Detection was carried out with a fluorescence detector at an excitation light of 465 nm and a fluorescent light of 535 nm. […]

For `CCCC/C=C/CCCC(O)C(CCCCCCCCCCCCCCCC/C=C/CC(=O)O)C(CO)C(C)O` (single isomer, unassigned) [purified substance], the “inhibition of the activity of neutral/alkaline ceramidase derived from a rat brain” value was determined as 50%.

Source of the values: US20080268073A1, “CERAMIDASE INHIBITOR” (TAKARA BIO INC., priority 2003, published 2008).
